#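 48-hour exposure; five concentrations; linearly interpolated endpoints. The concentration for 50% growth inhibition is given as GI50.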 Calls of active or inactive are those of the source. No stated cut-off is given here; in the data, active = GI50 up to about 1.1 µM and inactive = higher.
# Experiments:
# Assay in all cases: growth of human tumour cells (NCI), 48 h
# 786-0 = tested on: 786-0
# A549 = tested on: A549
# ACHN = tested on: ACHN
# CAKI-1 = tested on: CAKI-1
# CCRF-CEM = tested on: CCRF-CEM
# COLO 205 = tested on: COLO 205
# DLD-1 = tested on: DLD-1
# DMS-114 = tested on: DMS-114
# DMS-273 = tested on: DMS-273
# EKVX = tested on: EKVX
# HCT-116 = tested on: HCT-116
# HCT-15 = tested on: HCT-15
# HL-60 = tested on: HL-60
# HOP-18 = tested on: HOP-18
# HOP-62 = tested on: HOP-62
# HOP-92 = tested on: HOP-92
# HT-29 = tested on: HT-29
# IGROV-1 = tested on: IGROV-1
# K562 = tested on: K562
# KM-20L2 = tested on: KM-20L2
# KM12 = tested on: KM12
# LXFL 529 = tested on: LXFL 529
# M14 = tested on: M14
# M19-MEL = tested on: M19-MEL
# MOLT-4 = tested on: MOLT-4
# Malme-3M = tested on: Malme-3M
# NCI-H226 = tested on: NCI-H226
# NCI-H23 = tested on: NCI-H23
# NCI-H460 = tested on: NCI-H460
# NCI-H522 = tested on: NCI-H522
# OVCAR-3 = tested on: OVCAR-3
# OVCAR-4 = tested on: OVCAR-4
# OVCAR-8 = tested on: OVCAR-8
# RPMI-8226 = tested on: RPMI-8226
# RXF 393 = tested on: RXF 393
# SF-268 = tested on: SF-268
# SF-295 = tested on: SF-295
# SF-539 = tested on: SF-539
# SK-MEL-28 = tested on: SK-MEL-28
# SK-MEL-2 = tested on: SK-MEL-2
# SK-MEL-5 = tested on: SK-MEL-5
# SK-OV-3 = tested on: SK-OV-3
# SN12C = tested on: SN12C
# SNB-19 = tested on: SNB-19
# SNB-75 = tested on: SNB-75
# SR = tested on: SR
# SW-620 = tested on: SW-620
# TK-10 = tested on: TK-10
# U-251 = tested on: U-251
# UACC-257 = tested on: UACC-257
# UACC-62 = tested on: UACC-62
# UO-31 = tested on: UO-31
# A498 = tested on: A498
# HCC 2998 = tested on: HCC 2998
# LOX IMVI = tested on: LOX IMVI
# MCF7 = tested on: MCF7
# NCI/ADR-RES = tested on: NCI/ADR-RES
# OVCAR-5 = tested on: OVCAR-5
# SNB-78 = tested on: SNB-78
compound,measurement,setting,value
CC(C)[C@H]1CO[C@]2(C)[C@@H]3CN(Cc4ccccc4)C[C@@H]3C(=O)N12,GI50,786-0,> 100 µM (inactive)
same,GI50,A549,> 100 µM (inactive)
same,GI50,ACHN,> 100 µM (inactive)
same,GI50,CAKI-1,> 100 µM (inactive)
same,GI50,CCRF-CEM,> 100 µM (inactive)
same,GI50,COLO 205,> 100 µM (inactive)
same,GI50,DLD-1,> 100 µM (inactive)
same,GI50,DMS-114,> 100 µM (inactive)
same,GI50,DMS-273,> 100 µM (inactive)
same,GI50,EKVX,> 100 µM (inactive)
same,GI50,HCT-116,> 100 µM (inactive)
same,GI50,HCT-15,> 100 µM
same,GI50,HL-60,> 100 µM (inactive)
same,GI50,HOP-18,> 100 µM (inactive)
same,GI50,HOP-62,> 100 µM (inactive)
same,GI50,HOP-92,74.5 µM (inactive)
same,GI50,HT-29,> 100 µM (inactive)
same,GI50,IGROV-1,> 100 µM (inactive)
same,GI50,K562,> 100 µM (inactive)
same,GI50,KM-20L2,> 100 µM (inactive)
same,GI50,KM12,> 100 µM (inactive)
same,GI50,LXFL 529,> 100 µM (inactive)
same,GI50,M14,> 100 µM (inactive)
same,GI50,M19-MEL,> 100 µM (inactive)
same,GI50,MOLT-4,> 100 µM (inactive)
same,GI50,Malme-3M,> 100 µM (inactive)
same,GI50,NCI-H226,> 100 µM (inactive)
same,GI50,NCI-H23,> 100 µM (inactive)
same,GI50,NCI-H460,> 100 µM (inactive)
same,GI50,NCI-H522,> 100 µM (inactive)
same,GI50,OVCAR-3,> 100 µM (inactive)
same,GI50,OVCAR-4,> 100 µM (inactive)
same,GI50,OVCAR-8,> 100 µM (inactive)
same,GI50,RPMI-8226,> 100 µM (inactive)
same,GI50,RXF 393,> 100 µM (inactive)
same,GI50,SF-268,> 100 µM (inactive)
same,GI50,SF-295,> 100 µM (inactive)
same,GI50,SF-539,> 100 µM (inactive)
same,GI50,SK-MEL-28,> 100 µM (inactive)
same,GI50,SK-MEL-2,> 100 µM (inactive)
same,GI50,SK-MEL-5,> 100 µM (inactive)
same,GI50,SK-OV-3,> 100 µM (inactive)
same,GI50,SN12C,> 100 µM (inactive)
same,GI50,SNB-19,> 100 µM (inactive)
same,GI50,SNB-75,> 100 µM (inactive)
same,GI50,SR,> 100 µM (inactive)
same,GI50,SW-620,> 100 µM (inactive)
same,GI50,TK-10,> 100 µM (inactive)
same,GI50,U-251,> 100 µM (inactive)
same,GI50,UACC-257,> 100 µM (inactive)
same,GI50,UACC-62,> 100 µM (inactive)
same,GI50,UO-31,> 100 µM (inactive)
CCCCCCCCCCCC1=C(O)C(=O)C=C(O)C1=O [EMBELIN],GI50,A498,5.75 µM (inactive)
same,GI50,A549,4.36 µM (inactive)
same,GI50,CAKI-1,4.26 µM (inactive)
same,GI50,CCRF-CEM,4.27 µM (inactive)
same,GI50,COLO 205,7.5 µM (inactive)
same,GI50,DLD-1,8.49 µM (inactive)
same,GI50,DMS-114,5.47 µM (inactive)
same,GI50,DMS-273,4.72 µM (inactive)
same,GI50,EKVX,7.31 µM (inactive)
same,GI50,HCC 2998,4.72 µM (inactive)
same,GI50,HCT-116,9.2 µM (inactive)
same,GI50,HCT-15,5.11 µM
same,GI50,HL-60,3.95 µM (inactive)
same,GI50,HOP-18,4.58 µM (inactive)
same,GI50,HOP-62,5.56 µM (inactive)
same,GI50,HOP-92,4.09 µM (inactive)
same,GI50,HT-29,8.15 µM (inactive)
same,GI50,IGROV-1,6.76 µM (inactive)
same,GI50,K562,7.67 µM (inactive)
same,GI50,KM-20L2,7.43 µM (inactive)
same,GI50,KM12,6.38 µM (inactive)
same,GI50,LOX IMVI,7.35 µM (inactive)
same,GI50,MCF7,7.64 µM (inactive)
same,GI50,MOLT-4,6.35 µM (inactive)
same,GI50,Malme-3M,5.81 µM (inactive)
same,GI50,NCI-H226,5.25 µM (inactive)
same,GI50,NCI-H23,7.05 µM (inactive)
same,GI50,NCI-H460,2.88 µM (inactive)
same,GI50,NCI-H522,8.95 µM (inactive)
same,GI50,NCI/ADR-RES,6.27 µM (inactive)
same,GI50,OVCAR-3,4.71 µM (inactive)
same,GI50,OVCAR-4,10 µM (inactive)
same,GI50,OVCAR-5,8.83 µM (inactive)
same,GI50,OVCAR-8,2.01 µM (inactive)
same,GI50,RPMI-8226,3.81 µM (inactive)
same,GI50,RXF 393,12.9 µM (inactive)
same,GI50,SF-268,3.92 µM (inactive)
same,GI50,SF-295,6.03 µM (inactive)
same,GI50,SF-539,6.76 µM (inactive)
same,GI50,SK-MEL-28,6.67 µM (inactive)
same,GI50,SK-MEL-2,5.11 µM (inactive)
same,GI50,SK-MEL-5,4.84 µM (inactive)
same,GI50,SK-OV-3,8.43 µM (inactive)
same,GI50,SN12C,4.73 µM (inactive)
same,GI50,SNB-19,16.3 µM (inactive)
same,GI50,SNB-75,6.31 µM (inactive)
same,GI50,SNB-78,9.66 µM (inactive)
same,GI50,SW-620,18.3 µM (inactive)
same,GI50,U-251,5.02 µM (inactive)
same,GI50,UACC-257,6.17 µM (inactive)
same,GI50,UACC-62,4.11 µM (inactive)
same,GI50,UO-31,5.56 µM (inactive)
COc1cc(/C=C2\NC(=O)C(Cc3cc(OC)c(OC)c(C)c3OC)N(C(C)=O)C2=O)c(OC)c(C)c1OC (centres undefined),GI50,786-0,> 100 µM (inactive)
same,GI50,A498,> 100 µM (inactive)
same,GI50,A549,> 100 µM (inactive)
same,GI50,ACHN,> 100 µM (inactive)
same,GI50,CAKI-1,54.8 µM (inactive)
same,GI50,CCRF-CEM,45.2 µM (inactive)
same,GI50,COLO 205,54.7 µM (inactive)
same,GI50,DLD-1,> 100 µM (inactive)
same,GI50,DMS-114,60.5 µM (inactive)
same,GI50,DMS-273,> 100 µM (inactive)
same,GI50,EKVX,43.7 µM (inactive)
same,GI50,HCC 2998,> 100 µM (inactive)
same,GI50,HCT-116,> 100 µM (inactive)
same,GI50,HL-60,23 µM (inactive)
same,GI50,HOP-18,28.6 µM (inactive)
same,GI50,HOP-62,> 100 µM (inactive)
same,GI50,HOP-92,29.3 µM (inactive)
same,GI50,HT-29,> 100 µM (inactive)
same,GI50,IGROV-1,> 100 µM (inactive)
same,GI50,K562,61.2 µM (inactive)
same,GI50,KM-20L2,> 100 µM (inactive)
same,GI50,KM12,94.6 µM (inactive)
same,GI50,LOX IMVI,> 100 µM (inactive)
same,GI50,LXFL 529,72.8 µM (inactive)
same,GI50,M14,> 100 µM (inactive)
same,GI50,M19-MEL,> 100 µM (inactive)
same,GI50,MOLT-4,33.3 µM (inactive)
same,GI50,Malme-3M,83.6 µM (inactive)
same,GI50,NCI-H226,59.2 µM (inactive)
same,GI50,NCI-H23,> 100 µM (inactive)
same,GI50,NCI-H460,43.4 µM (inactive)
same,GI50,NCI-H522,21.8 µM (inactive)
same,GI50,OVCAR-3,> 100 µM (inactive)
same,GI50,OVCAR-4,> 100 µM (inactive)
same,GI50,OVCAR-5,> 100 µM (inactive)
same,GI50,OVCAR-8,72.8 µM (inactive)
same,GI50,RPMI-8226,45.6 µM (inactive)
same,GI50,RXF 393,95.5 µM (inactive)
same,GI50,SF-268,> 100 µM (inactive)
same,GI50,SF-295,> 100 µM (inactive)
same,GI50,SF-539,> 100 µM (inactive)
same,GI50,SK-MEL-28,> 100 µM (inactive)
same,GI50,SK-MEL-2,96.4 µM (inactive)
same,GI50,SK-MEL-5,42.9 µM (inactive)
same,GI50,SK-OV-3,> 100 µM (inactive)
same,GI50,SN12C,> 100 µM (inactive)
same,GI50,SNB-19,> 100 µM (inactive)
same,GI50,SNB-75,> 100 µM (inactive)
same,GI50,SR,> 100 µM (inactive)
same,GI50,SW-620,> 100 µM (inactive)
same,GI50,TK-10,> 100 µM (inactive)
same,GI50,U-251,> 100 µM (inactive)
same,GI50,UACC-257,> 100 µM (inactive)
same,GI50,UACC-62,> 100 µM (inactive)
same,GI50,UO-31,85.1 µM (inactive)
